According to the Deep4Chem optical property database:
Several values for one entry are separate records, joined by “and”; a condition that tells them apart may be missing. Identical values can stand only once. Each block holds one compound with its values, some of them ahead of it.

Test: solvent given as SMILES
[1] = in c1cc(-n2c3ccccc3c3ccccc32)cc(-n2c3ccccc3c3ccccc32)c1

Compound: CC(C)(C)c1ccc(C(C)(C)C)c(N2C(=O)c3cccc4c(-c5ccc(-c6ccccc6)s5)ccc(c34)C2=O)c1
emission maximum (in CO): 572 nm
emission maximum (in CS(C)=O): 557 nm
emission maximum (in Cc1ccccc1): 493 nm

Compound: c1csc(-c2c3ccc(=[N+]4CCCCC4)cc-3oc3cc(N4CCCCC4)ccc23)c1
emission maximum (in CCO): 606 nm
emission maximum (in ClCCl): 603 nm

Compound: c1ccc(-n2c(-c3ccc(-c4ccc5c(c4)C4(c6ccccc6-5)c5ccccc5-c5ccc(-c6ccc(-c7nc8ccccc8n7-c7ccccc7)cc6)c6cccc4c56)cc3)nc3ccccc32)cc1 (stereo not given)
emission maximum (in ClC(Cl)Cl): 440 nm

Compound: O=S1(=O)c2ccccc2C2(c3cc(-c4ccc(-n5c6ccccc6c6ccccc65)cc4)ccc3-c3ccc(-c4ccc(-n5c6ccccc6c6ccccc65)cc4)cc32)c2ccccc21
emission maximum (in ClCCl): 427 nm
emission maximum [1]: 412 nm

Compound: Cc1ccc2c(c1)C(C)(C)c1cc(C)ccc1N2c1ccc2c(c1)C(C)(C)c1cc(N3c4ccc(C)cc4C(C)(C)c4cc(C)ccc43)ccc1S2(=O)=O
emission maximum (in Cc1ccccc1): 470.07 nm
emission maximum (in ClCCl): 538 nm

Compound: COc1ccc(C2=Cc3ccccc3P2(=O)c2ccccc2)cc1 (stereo not given)
emission maximum (in C1CCOC1): 443 nm
emission maximum (in ClCCl): 454 nm

Compound: Cn1c(=O)c(/N=N/c2cc(S(=O)(=O)O)ccc2C(=O)O)c(O)c2ccccc21
emission maximum (in C1CCOC1): 523 nm
emission maximum (in CC(C)=O): 538 nm
emission maximum (in CCOC(C)=O): 528 nm
emission maximum (in CO): 532 nm
emission maximum (in CS(C)=O): 486 nm
emission maximum (in Cc1ccccc1): 509 nm
emission maximum (in ClCCl): 516 nm
emission maximum (in O): 553 nm

Compound: CCc1c(C)[nH]c(C2=[N+]3C(=Cc4c(C)cc(C)n4[B-]3(F)F)c3ccccc32)c1C
emission maximum (in C1CCOC1): 635 nm
emission maximum (in CC#N): 632 nm
emission maximum (in CCCCCC): 630 nm
emission maximum (in CO): 631 nm
emission maximum (in Cc1ccccc1): 642 nm
emission maximum (in ClCCl): 640 nm

Compound: N#Cc1c(-n2c3ccccc3c3ccccc32)c(F)c(-n2c3ccccc3c3ccccc32)c(-n2c3ccccc3c3ccccc32)c1-n1c2ccccc2c2ccccc21
emission maximum (in Cc1ccccc1): 453 nm
emission maximum (in c1ccc([Si](c2ccccc2)(c2ccc(-n3c4ccccc4c4ccccc43)cc2)c2ccc(-n3c4ccccc4c4ccccc43)cc2)cc1): 470 nm

Compound: Cn1c(/C=C/c2ccc(/C=C/c3nc4ccccc4[nH]3)cc2)[n+](C)c2ccccc21
emission maximum (in C1CCOC1): 576 nm
emission maximum (in CC#N): 576 nm
emission maximum (in CC(C)=O): 580 nm
emission maximum (in CN(C)C=O): 582 nm
emission maximum (in CO): 567 nm
emission maximum (in CS(C)=O): 584 nm
emission maximum (in O): 574 nm

Compound: S=P1(c2ccccc2)c2cccc3ccc4ccc1n4c23 (stereo not given)
emission maximum (in ClCCl): 490 nm

Compound: Cc1cc(C)c(C)c(-c2ccc3cc(C)c(=O)oc3c2)c1C
emission maximum (in C1CCCCC1): 383 nm
emission maximum (in CC#N): 388 nm
emission maximum (in CO): 394 nm

Compound: CC1(C)c2ccccc2N2c3ccccc3C3(c4cc(C#N)ccc4-c4ccc(C#N)cc43)c3cccc1c32
emission maximum (in Cc1ccccc1): 485.37 nm

Compound: CC1=CC(C)=[N+]2C1=Cc1c3ccccc3c(C#Cc3cccs3)n1[B-]2(F)F
emission maximum (in CCCCCC): 628 nm
emission maximum (in CCCCCCCCO): 636 nm
emission maximum (in CCOC(C)=O): 632 nm
emission maximum (in CN(C)C=O): 639 nm
emission maximum (in ClCCl): 631 nm

Compound: CCC1=C(C)C2=C(c3ccc(-c4c5ccccc5c(-c5ccccc5)c5ccccc45)cc3)c3c(C)c(CC)c(C)n3[B-](F)(F)[N+]2=C1C
emission maximum (in CC#N): 534 nm
emission maximum (in CCCCCC): 536 nm
emission maximum (in CCO): 537 nm
emission maximum (in CN(C)C=O): 537 nm
emission maximum (in Cc1ccccc1): 539 nm
emission maximum (in ClCCl): 540 nm

Compound: O=c1c2cccc3cccc(c32)c2nc3ccccc3n12
emission maximum (in ClCCl): 499 nm

Compound: CC(C)(C)NC(=O)c1ccc(-c2ccc(N3c4ccccc4Oc4ccccc43)cc2)c2ccc3c4ccc(F)cc4c4cc(F)ccc4c3c12
emission maximum (in ClCCl): 573 nm

Compound: c1ccc(-c2nc(-c3ccccc3)nc(-n3c4ccccc4c4cc(-n5c6ccccc6c6ccccc65)ccc43)n2)cc1
emission maximum (in C1CCOC1): 535.43 nm
emission maximum (in Cc1ccccc1): 502.82 nm

Compound: CC1=[N+]2C(=C(c3ccc(N4CCCCC4)cc3)c3ccc(C)n3[B-]2(F)F)C=C1
emission maximum (in C1CCCCC1): 519 nm
emission maximum (in C1CCOC1): 527 nm and 514 nm
emission maximum (in CC#N): 519 nm
emission maximum (in CC(=O)C(C)(C)C): 523 nm
emission maximum (in CC(C)=O): 517 nm
emission maximum (in CCCCCC): 520 nm
emission maximum (in CCOC(C)=O): 518 nm
emission maximum (in CO): 518 nm
emission maximum (in Cc1ccccc1): 593 nm
emission maximum (in ClC(Cl)Cl): 527 nm

Compound: O=P1(c2ccccc2)c2cccc3c4c5ccccc5c5ccccc5c4c4ccc1n4c23 (stereo not given)
emission maximum (in ClCCl): 490 nm

Compound: N#Cc1ccc(/C=C2\OC(=O)c3cc(N)ccc32)cc1
emission maximum (in CC#N): 485.44 nm
emission maximum (in CC(C)=O): 482.16 nm
emission maximum (in CC(C)CO): 502.26 nm
emission maximum (in CC(C)O): 496.03 nm
emission maximum (in CCCO): 498.26 nm
emission maximum (in CCO): 502.77 nm
emission maximum (in CCOC(C)=O): 467.73 nm
emission maximum (in CCOCC): 444.84 nm
emission maximum (in CO): 503.52 nm

Compound: c1ccc(/C(=C(\c2ccccc2)c2cc(-c3ccccc3)ccc2-c2ccc(-c3ccccc3)cc2)c2cc(-c3ccccc3)ccc2-c2ccc(-c3ccccc3)cc2)cc1
emission maximum (in C1CCOC1): 494 nm

Compound: CN(C)c1ccc(C(=Cc2ccc(/C=C/c3ccc(C#N)cc3)cc2)c2ccc(N(C)C)cc2)cc1
emission maximum (in C1CCOC1): 481 nm

Compound: O=C(c1ccccc1)c1cc2ccc1CCc1ccc(c(-c3ccc(N(c4ccccc4)c4ccccc4)cc3)c1)CC2
emission maximum (in Cc1ccccc1): 455 nm
emission maximum [1]: 468.87 nm

Compound: CC(C)(C)c1ccc(-c2cc3c(-c4ccc(C(C)(C)C)cc4)c4cccc5c(-c6ccc(C(C)(C)C)cc6)cc6c(-c7ccc(C(C)(C)C)cc7)c7cccc2c7c3c6c54)cc1
emission maximum (in C1CCCCC1): 463 nm
emission maximum (in CC#N): 464 nm
emission maximum (in CO): 462 nm
emission maximum (in Cc1ccccc1): 467 nm
emission maximum (in ClCCl): 467 nm

Compound: Cc1nc2c(ccc3c2sc(/C=C/c2cc4c5c(c2)CCCN5CCC4)[n+]3C)s1
emission maximum (in CO): 622 nm
emission maximum (in ClC(Cl)Cl): 623 nm

Compound: CCCCC(CC)CN1C(=O)c2cc(Oc3ccc(C(C)(C)C)cc3)c3c4c(Oc5ccc(OC)cc5)cc5c6c(cc(Oc7ccc(OC)cc7)c(c7c(Oc8ccc(C(C)(C)C)cc8)cc(c2c37)C1=O)c64)C(=O)N(c1c(C(C)C)cccc1C(C)C)C5=O (stereo not given)
emission maximum (in Cc1ccccc1): 608 nm

Compound: CN(C)CCNCc1c2ccccc2cc2ccccc12
emission maximum (in C1CCCCC1): 388 nm
emission maximum (in C1CCOC1): 413 nm
emission maximum (in CC#N): 389 nm
emission maximum (in CC(C)=O): 387 nm
emission maximum (in CCO): 410 nm
emission maximum (in CN(C)C=O): 414 nm
emission maximum (in CO): 388 nm
emission maximum (in ClC(Cl)Cl): 417 nm

Compound: COCCC1=Cc2nc1ccc1[nH]c(cc1CCOC)c1nc(ccc3[nH]c2cc3CCOC)C(CCOC)=C1
emission maximum (in Cc1ccccc1): 642 nm

Compound: S=P1(c2ccccc2)c2cccc3c4c5ccccc5c5ccccc5c4c4ccc1n4c23 (stereo not given)
emission maximum (in ClCCl): 493 nm

More lines, now with the values ahead:

emission maximum (in CCO): 530 nm
emission maximum (in ClCCl): 526 nm
emission maximum (in O): 563 nm
Compound: O=Cc1ccc(-c2ccc(-c3nc4ccccc4s3)c(O)c2)o1

emission maximum (in CC#N): 727 nm
Compound: CN1/C(=C\C=C\C2=C3C=CC(c4ccccc4)=[N+]3[B-](F)(F)n3c2ccc3-c2ccccc2)Sc2ccccc21

emission maximum (in C1CCOC1): 394 nm
Compound: C(=C1c2ccccc2CCc2ccccc21)c1ccc(-c2ccc(C=C3c4ccccc4CCc4ccccc43)cc2)cc1

emission maximum (in CC#N): 415 nm
Compound: COc1ccc(-n2nc(C#N)c(N3CCCCC3)n2)cc1

emission maximum (in ClCCl): 432 nm
Compound: c1ccc(-n2c(-c3ccc(N(c4ccc(-c5ccc(N(c6ccc(-c7nc8c9ccccc9c9ccccc9c8n7-c7ccccc7)cc6)c6ccc(-c7nc8c9ccccc9c9ccccc9c8n7-c7ccccc7)cc6)cc5)cc4)c4ccc(-c5nc6c7ccccc7c7ccccc7c6n5-c5ccccc5)cc4)cc3)nc3c4ccccc4c4ccccc4c32)cc1

emission maximum (in CCO): 468 nm
emission maximum (in ClC(Cl)Cl): 454 nm
Compound: CCOc1ccc2c(-c3nc(-c4ccccc4)no3)cc(=O)oc2c1

emission maximum (in CC#N): 419.32 nm
emission maximum (in CO): 446.19 nm
Compound: Cn1cc(/C=C/C(=O)c2ccccc2)c2ccccc21

emission maximum (in C1CCOC1): 393 nm
Compound: c1ccc2c(c1)-c1ccccc1C21c2ccccc2-c2oc3c(c21)C1(c2ccccc2-c2ccccc21)c1ccccc1-3

emission maximum (in C1CCCCC1): 704 nm
emission maximum (in CCOC(C)=O): 710 nm
Compound: CC1=[N+]2C(=C(/C=C/c3ccc(C(F)(F)F)cc3)c3ccc(C)n3[B-]2(F)F)C=C1c1cc2n(c1)[B-](F)(F)[N+]1=CC=CC1=C2c1c(C)cc(C)cc1C

emission maximum (in C1CCOC1): 424 nm
Compound: O=c1oc2cccc3c4cccc5ccc6c7cc(F)ccc7c1c(c23)c6c54

emission maximum (in ClCCl): 492 nm
Compound: Cc1ccc(-c2cc(/C=C/c3ccc(N(c4ccccc4)c4ccccc4)cc3)c(-c3ccc(C)cc3)cc2/C=C/c2ccc(N(c3ccccc3)c3ccccc3)cc2)cc1

emission maximum (in C1COCCO1): 544 nm
Compound: COC(=O)c1ccc(/C=C2\C=C(c3ccccc3)NC2=O)cc1

emission maximum (in ClCCl): 405 nm
Compound: Oc1ccc2ccccc2c1-c1nc2c(c3c1-c1ccccc1CC3)-c1ccccc1CC2

emission maximum (in CCO): 579 nm
Compound: CN(C)c1ccc2c(-c3ccc(Br)cc3)c3ccc(=[N+](C)C)cc-3oc2c1

emission maximum (in ClCCl): 599 nm
Compound: CN(C)c1ccc(C2=CC3=C(c4ccc(C#N)cc4)[C@H]4c5ccccc5[C@]3(S2)c2ccccc24)cc1

emission maximum (in C1CCOC1): 748 nm
emission maximum (in CS(C)=O): 771 nm
emission maximum (in ClCCl): 735 nm
Compound: COc1cc(OC)cc(C2=C3C(C)=C(I)C(/C=C/c4c[nH]c5ccccc45)=[N+]3[B-](F)(F)n3c(/C=C/c4c[nH]c5ccccc45)c(I)c(C)c32)c1

emission maximum (in CC#N): 391 nm
Compound: Cc1ccc(-c2ccc(/C=C/c3ccc(F)cc3)cn2)nc1

emission maximum (in CCO): 558 nm
emission maximum (in ClCCl): 553 nm
emission maximum (in O): 574 nm
Compound: O=Cc1ccc(-c2ccc(O)c(-c3nc4ccccc4s3)c2)s1

emission maximum (in ClCCl): 451 nm
Compound: CCCCn1c(-c2ccc(-c3nnc(-c4ccc(-c5nc6c7ccccc7c7ccccc7c6n5CCCC)cc4)o3)cc2)nc2c3ccccc3c3ccccc3c21
